Data set [1] concerns B(a)P-induced lung adenoma. Nature of the data set: Tumor bioassay: B(a)P-induced lung tumorigenesis, ITC-NAC conjugates in diet during post-initiation phase. On the procedure:
The ITC conjugates were incorporated (15 μmol/g diet) into AIN-76A diets (5% corn oil) by mixing with dextrose prior to diet preparation. The conjugates, 9.36 g BITC-NAC (15 mmol) or 9.79 g PEITC-NAC (15 mmol), were dissolved in 50 ml ethyl acetate, and then mixed with 200 g dextrose to ensure even coating of dextrose particles. After mixing with dextrose, the solvent was removed using a rotary evaporator and further dried using a vacuum pump (2-3 h). Diets were prepared in 1-2 kg batches, and were stored at 4° C. in a container purged with nitrogen. […] Stability was determined by extraction of 0.5 g portions of the diet with 2.5 ml methanol (2×). The methanol extracts were combined and a 1 ml aliquot was filtered using a 0.47 μm syringe filter. A 10 μl sample was then analyzed on HPLC (Jiao, et al., Chem. Res. Toxicol., 9: 932-938, 1996).
Tumor Bioassay: Female strain A mice (Jackson Laboratories, Bar Harbor, Me.) of four weeks of age were housed under quarantine in polycarbonate cages (5 mice/cage) and provided modified AIN 76A diet (5% corn oil) and acidified drinking water ad libitum. The mice were maintained on a 12 h light: 12 h dark regimen at 22±5° C. and 50±20% relative humidity. After one week, the mice were weighed, and distributed into four groups containing 30 to 35 mice on the basis of body weight. At seven weeks of age, the mice in groups 1-3 were gavaged with a single dose of 20 μmol B(a)P in 0.2 ml cottonseed oil; group 4 received the vehicle only. Two days after dosing with the carcinogen, diets containing BITC-NAC (15 μmol/g, Group 2) and PEITC-NAC (15 μmol/g, Group 3) were provided. Groups 1 (B[a]P control) and 4 (vehicle only) remained on the modified AIN-76A diet with 5% corn oil. Tap water was provided ad libitum during the course of the bioassay. Mice were observed daily; diets were replenished on the fourth day of the week, and completely replaced on the seventh day. Mice were weighed weekly for four weeks, then monthly and at termination. At 84 days after B(a)P dosing, four mice per group were killed (CO2, cervical dislocation) to harvest lung tissues for molecular and immunohistochemical studies and to quantify lung adenomas, if present. At 140 days after B(a)P, the remaining mice in each group were killed. The number of lung tumors was recorded; lobes of lungs were placed in 10% phosphate buffered formalin for histological and immunohistochemical analysis. The remaining lung lobes were snap frozen in liquid nitrogen.
Mean tumor multiplicity and body weights at each time point were compared between groups using Student's T test.

In data set [2] the test system is alveolar epithelium cells of lung. Nature of the data set: In situ end-labeling (ISEL/TUNEL) of apoptosis in lung sections. The class given is in vivo, A/J mice.
The test system of another data set is p53. Nature of the data set: Western blot of lung proteins: p53 expression and phosphorylation. The following applies: lungs at termination of the bioassay. The class given is in vivo, A/J mice. Background: In western blotting, separated proteins are transferred to a membrane and probed.
Data set [3] can be described thus: Stability of conjugates in AIN-76A diet (methanol extraction, HPLC). The class given is physicochemical. The following applies: stored at 4° C. under nitrogen.
Protocol: The ITC conjugates were incorporated (15 μmol/g diet) into AIN-76A diets (5% corn oil) by mixing with dextrose prior to diet preparation. […] After mixing with dextrose, the solvent was removed using a rotary evaporator and further dried using a vacuum pump (2-3 h). Diets were prepared in 1-2 kg batches, and were stored at 4° C. in a container purged with nitrogen. […] Stability was determined by extraction of 0.5 g portions of the diet with 2.5 ml methanol (2×). The methanol extracts were combined and a 1 ml aliquot was filtered using a 0.47 μm syringe filter.
For the next data set, the system named is A549/TAM67 cells. The data set is described as follows: Apoptosis in A549/TAM67 transfectants (morphology, DNA fragmentation, annexin V, PARP Western blot). The following applies: 25 μM. The class given is cell-based, human.
The test system of the next data set is A549/c-jun cells. Nature of the data set: Apoptosis in A549/c-jun transfectants (morphology, DNA fragmentation, annexin V, PARP Western blot). Format: cell-based, human. As to conditions: 25 μM.
Data set [4] concerns A549/control-vector cells. Nature of the data set: Apoptosis in A549/control-vector transfectants (morphology, DNA fragmentation, annexin V, PARP Western blot). Format: cell-based, human. The following applies: 25 μM.
The test system of data set [5] is A549 cells. The data set is described as follows: Apoptosis in A549 cells treated with TPA, PEITC-NAC or TPA plus PEITC-NAC (photography, DAPI staining). The class given is cell-based, human. The following applies: TPA 100 nM 12 h prior, then PEITC-NAC 24 h. The text has this:
Assay for single cell DNA strand breaks: A549 cells treated with or without TPA, PEITC-NAC or TPA plus PEITC-NAC were collected at the times specified in the text, cytocentrifuged and stained with 4′-6′diamidino-2-phenylindole (DAPI). The photographs were taken using an Olympus AX 70 microscope (Melville, N.Y.) with fluorescence and SPOT RT Slider digital image system (Diagnostic Instruments Inc., Sterling Heights, Mich.). Arrows indicated the typical apoptotic features of DNA strand breakage and nuclear fragmentation.
TPA (100 nM) was added to A549 cells 12 h prior to addition of PEITC-NAC, which was added 24 h before photography of cells, protein isolation, or DAPI staining. […] These cells were treated identically, but were stained with the DNA fluorochrome DAPI.

For data set [6], the system named is A549 cells. The data set is described as follows: Cell cycle phase-specific DNA strand breaks (TUNEL) in A549 cells. The class given is cell-based, human. The procedure:
Detection of cell cycle phase-specific DNA strand breaks (“TUNEL”): A549 cells were fixed with 1% formaldehyde for 15 min and then permabilized by post-fixation in 70% ethanol. The presence of in situ DNA strand breaks, a characteristic feature of apoptosis was detected by labeling them with a fluorochrome-conjugated nucleotide in the reaction catalyzed by the terminal deoxynucleotidyl transferase; cellular DNA was counterstained with DAPI. The kit provided by Phoenix Flow Systems (San Diego, Calif.) was used in this assay. This method is also described in detail elsewhere (Gorczyca et al., Internat J. Oncol. 1992, 1:639-648). Green and red fluorescence of cells probed for DNA strand breaks and DNA content was measured using a FACScan flow cytometer (Becton Dickinson, San Jose, Calif.) with standard settings of green (strand breaks) and red (DNA) fluorescence detection. To calculate the percentage of apoptotic cells in respective phases of cell cycle, DNA content frequency histograms were deconvoluted using CELLQuest software.
Apoptosis induced by PEITC-NAC occurs predominantly in dividing cells. […] DNA strand breaks during apoptosis was detected by end-labeling, which was combined with analysis of the cellular DNA content. […]

Marks after values point to notes of the source that are not given here.

Consider `CC(=O)N[C@@H](CSC(=S)NCCc1ccccc1)C(=O)O` [PEITC-NAC, N-acetylcysteine Conjugate of phenethyl isothiocyanate], for which the “tumor multiplicity” value in data set [1] (15 μmol/g diet after B(a)P, at termination, B(a)P control 6.1±3.1) is listed as 3.4±2.7 tumors/mouse. In addition, in [1] (15 μmol/g diet from 2 days after 20 μmol B(a)P, 140 days), the “Tumor Incidence (%), lung adenoma” value is recorded as 89%. Also, the “Tumor multiplicity (no. of tumors/mice), lung adenoma” value in data set [1] (15 μmol/g diet from 2 days after 20 μmol B(a)P, 140 days, mean ± SD) is listed as 3.39 ± 2.71^b no. of tumors/mice. The “average body weight at termination” value in data set [1] (15 μmol/g diet, controls 25.8 g and 25.7 g) came out at 22.8 g. Further, in data set [1] (versus B(a)P control diet group, at termination), the tumor reduction is 44%. Also, the “increase in apoptosis, non-tumorous lung tissue” value in data set [2] (after 140 days) was 2.3 fold. For the same compound, in data set [2] (lung tissue at 84 days, before tumors appeared), the “apoptotic index, fold elevation” value was “approximately 2 fold”. Moreover, the “phosphorylation of p53 at Ser15” value with p53 was “stronger increase”. Moreover, the stability in diet result in data set [3] is listed as “stable for at least one month”. Also, the entries for the “PARP 89 kD cleavage fragment” value (with A549/TAM67 cells (3 h); in the data set with A549/c-jun cells (3 h); in data set [4] (3 h)) were “a defined 89 kD band”, “the most evident cleavage” and “a very light 89 kD cleavage fragment”, respectively. The “cell survival (annexin V-Cy3 / 6-CFDA staining)” value with A549/TAM67 cells (20 h) is listed as “nearly no cell survival”. The PARP protein result was “completely degraded” in the data set with A549/TAM67 cells (24 h), “maintained a significant levels of intact PARP protein” in the data set with A549/c-jun cells (24 h) and “maintained a significant levels of intact PARP protein” in data set [4] (24 h). Besides, the entries for the “cell survival (morphology, DNA fragmentation)” value (in the data set on A549/TAM67 cells (24 h); in data set [4] (24 h)) were “most TAM67 transfectants had already died” and “the majority of control-vector transfectants were still alive”, respectively. Moreover, in the data set with A549/c-jun cells (24 h), the “apoptosis compared with control-vector transfected cells” value is “enhanced apoptosis”. The “incidence of apoptosis in TPA-pretreated cells compared with PEITC-NAC alone” value in the data set with A549 cells [5] is on record as “a much higher incidence of apoptosis”. For the same compound, in the data set on A549 cells [6] (25 μM, 16 h), the cell cycle distribution result is “a substantial portion of the cells accumulate in G2M phase”. In addition, the “apoptotic cells by DNA strand break labeling” value in the data set on A549 cells [6] (50 μM, 24 h) is “a distinct population of apoptotic cells”.

For the origin of these results see patent publication US20060241178A1, “Compositions and methods for treating lung cancer” (priority 2002, published 2006).
